Source: publication PMC6747129 (International Journal of Molecular Sciences, 2019)

How the values were obtained:
CYP3A4 [1] = biological target: T1, CYP3A4 (Homo sapiens, UniProt P08684); test: in vitro; conditions: pH 7.4
CYP3A4 [2] = biological target: T1, CYP3A4
CYP3A4 [3] = biological target: T1, CYP3A4; test: biochemical
[4] = test system: microsomal and recombinant CYP3A4; conditions: reversible and mechanism-based inhibition of CYP3A4; cited from earlier work

T1 sequence (P08684 whole entry): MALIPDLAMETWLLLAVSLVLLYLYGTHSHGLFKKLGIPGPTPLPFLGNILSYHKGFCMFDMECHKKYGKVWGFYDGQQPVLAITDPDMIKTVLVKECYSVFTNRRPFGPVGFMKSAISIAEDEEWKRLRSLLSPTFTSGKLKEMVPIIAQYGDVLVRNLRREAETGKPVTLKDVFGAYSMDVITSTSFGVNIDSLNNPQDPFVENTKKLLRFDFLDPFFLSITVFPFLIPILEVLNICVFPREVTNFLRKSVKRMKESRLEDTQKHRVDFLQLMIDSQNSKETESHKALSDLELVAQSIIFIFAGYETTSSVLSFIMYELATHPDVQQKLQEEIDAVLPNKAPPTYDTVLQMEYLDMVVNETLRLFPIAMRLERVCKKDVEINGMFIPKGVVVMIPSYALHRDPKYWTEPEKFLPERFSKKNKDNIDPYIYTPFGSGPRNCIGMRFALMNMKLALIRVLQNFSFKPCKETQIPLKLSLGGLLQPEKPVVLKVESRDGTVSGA

| Kd (CYP3A4 [1]) [µM] | share of the total absorbance decrease (Soret band) due to occupation of the high affinity site (CYP3A4 [2]; DHB titration, two-site fit) | Kd (CYP3A4 [3]) [µM] | n, Hill coefficient (CYP3A4 [2]; sigmoidal fit of titration curve, ligand-free CYP3A4) | SMILES | IC50 [4] [µM] |
| --- | --- | --- | --- | --- | --- |
| 10.3 ± 1.4 | ~ 17% | 0.22 ± 0.03 |  | C/C(=C\COc1c2ccoc2cc2oc(=O)ccc12)CCC(O)C(C)(C)O (stereo not shown) [DHB, 6′,7′-dihydroxybergamottin] | 2 to 23 |
|  |  | 3 ± 0.3 | 1.8 | CC(C)=CCC/C(C)=C/COc1c2ccoc2cc2oc(=O)ccc12 [bergamottin] | 2 to 23 |
